We go through 13 molecules from US9527856B2, “Oxindole compounds carrying a CO-bound spiro substituent and use thereof for treating vasopressin-related diseases” (AbbVie Deutschland GmbH & Co. KG, priority 2014, dated 2016).

Read-outs that look alike come from different tables or passages of the source. Bounds are passed on as bounds.

The target in assay [1] is human vasopressin V1a receptor (Homo sapiens, UniProt P37288). The assay can be described thus: Vasopressin V1a receptor binding assay. Particulars: selectivity for human V1b over human V1a, quotient of binding constants.
human vasopressin V1a receptor, sequence (P37288 whole entry): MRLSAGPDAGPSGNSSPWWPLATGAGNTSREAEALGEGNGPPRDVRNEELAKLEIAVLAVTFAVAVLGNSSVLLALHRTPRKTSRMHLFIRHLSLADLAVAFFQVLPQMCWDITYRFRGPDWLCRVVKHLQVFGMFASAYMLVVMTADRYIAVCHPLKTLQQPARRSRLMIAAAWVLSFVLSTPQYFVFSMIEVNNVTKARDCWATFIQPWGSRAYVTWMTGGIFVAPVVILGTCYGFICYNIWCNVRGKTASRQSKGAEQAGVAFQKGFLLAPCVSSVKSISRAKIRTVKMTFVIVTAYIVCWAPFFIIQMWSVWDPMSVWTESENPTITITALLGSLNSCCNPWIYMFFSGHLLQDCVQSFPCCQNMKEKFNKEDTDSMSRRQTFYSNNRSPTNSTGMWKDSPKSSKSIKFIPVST
In assay [2] the target is T1, human vasopressin V1b receptor (Homo sapiens, UniProt P47901).
T1 sequence (P47901 1-424): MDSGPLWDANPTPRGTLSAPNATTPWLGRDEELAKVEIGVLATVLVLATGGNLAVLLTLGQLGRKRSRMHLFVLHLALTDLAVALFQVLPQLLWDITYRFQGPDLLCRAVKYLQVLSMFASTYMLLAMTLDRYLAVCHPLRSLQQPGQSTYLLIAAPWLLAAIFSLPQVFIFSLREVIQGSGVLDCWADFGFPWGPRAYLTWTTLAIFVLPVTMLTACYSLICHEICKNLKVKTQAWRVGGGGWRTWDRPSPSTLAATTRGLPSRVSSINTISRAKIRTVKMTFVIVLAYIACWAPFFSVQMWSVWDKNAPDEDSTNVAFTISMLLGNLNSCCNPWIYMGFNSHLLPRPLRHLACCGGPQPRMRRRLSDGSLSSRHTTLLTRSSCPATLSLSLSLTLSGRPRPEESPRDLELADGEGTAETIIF
Particulars: read-out: Ki(h-V1b)*, CHO-K1 cell membranes, displacement of 3H-AVP. In general terms: Loss of bound radioactivity is the signal in a displacement assay; it reports binding, not function.

In assay [3] the target is T1, human vasopressin V1b receptor. Kind of assay: biochemical. Particulars: Ki(h-V1b)* [nM], CHO-K1 cell membranes, displacement of 3H-AVP.

The term Ki denotes the dissociation constant of the complex between target and ligand, obtained from inhibition or displacement. Take `CCOc1ncccc1[C@]1(NC(=O)N2CC3(CN(CCN4CCOCC4)C3)C2)C(=O)N(S(=O)(=O)c2ccc(F)cc2OC)c2ccc(C#N)cc21` [Example 3, N-[(3S)-5-Cyano-3-(2-ethoxy-3-pyridyl)-1-(4-fluoro-2-methoxy-phenyl)sulfonyl-2-oxo-indolin-3-yl]-2-(2-morpholinoethyl)-2,6-diazaspiro[3.3]heptane-6-carboxamide]: the “Ki(h-V1a)/Ki(h-V1b)” value in assay [1] was “+++ (>75)”. Also, in assay [2], the Ki fell in the range of 1 to 10 nM.
As for `CCOc1ncccc1[C@]1(NC(=O)N2CC3(CN(CCN4CCOCC4)C3)C2)C(=O)N(S(=O)(=O)c2ccc(OC)cc2F)c2ccc(C#N)cc21` [Example 18, N-[(3S)-5-Cyano-3-(2-ethoxy-3-pyridyl)-1-(2-fluoro-4-methoxy-phenyl)sulfonyl-2-oxo-indolin-3-yl]-2-(2-morpholinoethyl)-2,6-diazaspiro[3.3]heptane-6-carboxamide], in assay [1], the “Ki(h-V1a)/Ki(h-V1b)” value is “+++ (>75)”. In addition, the inhibitory constant (Ki) in assay [3] was below 1 nM.
On the same counts, the results for `CCOc1ccccc1[C@]1(NC(=O)N2CC3(C2)CN(C2CCN(C(C)C)CC2)C3)C(=O)N(S(=O)(=O)c2ccc(F)cc2)c2ccc(C#N)cc21.O=C(O)C(F)(F)F` [Example 43B, N-[(3S)-5-Cyano-3-(2-ethoxyphenyl)-1-(4-fluorophenyl)sulfonyl-2-oxo-indolin-3-yl]-2-(1-isopropyl-4-piperidyl)-2,6-diazaspiro[3.3]heptane-6-carboxamide; 2,2,2-trifluoroacetic acid] are “+++ (>75)” and 10 to 100 nM.
On the same counts, the results for `CCOc1ncccc1[C@]1(NC(=O)N2CC3(CN(CCN4CCOCC4)C3)C2)C(=O)N(S(=O)(=O)c2ccc(C#N)cc2)c2ccc(C#N)cc21` [Example 5, N-[(3S)-5-cyano-1-(4-cyanophenyl)sulfonyl-3-(2-ethoxy-3-pyridyl)-2-oxo-indolin-3-yl]-2-(2-morpholinoethyl)-2,6-diazaspiro[3.3]heptane-6-carboxamide] are “+++ (>75)” and 10 to 100 nM.
On the same counts, the results for `CCOc1ncccc1[C@]1(NC(=O)N2CC3(C2)CN(C2CCN(C)CC2)C3)C(=O)N(S(=O)(=O)c2ccccc2OC)c2ccc(C#N)cc21` [Example 32, N-[(3S)-5-Cyano-3-(2-ethoxy-3-pyridyl)-1-(2-methoxyphenyl)sulfonyl-2-oxo-indolin-3-yl]-2-(1-methyl-4-piperidyl)-2,6-diazaspiro[3.3]heptane-6-carboxamide] are “++ (25-75)” and 10 to 100 nM.
Regarding `CCOc1ncccc1[C@]1(NC(=O)N2CC3(CN(CCCN4CCOCC4)C3)C2)C(=O)N(S(=O)(=O)c2ccc(OC)cc2)c2ccc(C#N)cc21` [Example 2, N-[(3S)-5-Cyano-3-(2-ethoxy-3-pyridyl)-1-(4-methoxyphenyl)sulfonyl-2-oxo-indolin-3-yl]-2-(3-morpholinopropyl)-2,6-diazaspiro[3.3]heptane-6-carboxamide], the “Ki(h-V1a)/Ki(h-V1b)” value in assay [1] is “+++ (>75)”. This molecule had a Ki in assay [3] of 10 to 100 nM.
On the same counts, the results for `CCOc1ncccc1[C@]1(NC(=O)N2CC3(CN(CCN4CCOCC4)C3)C2)C(=O)N(S(=O)(=O)c2ccc(F)cc2OC)c2ccc(C#N)cc21` [Example 17, N-[(3S)-5-Cyano-3-(2-ethoxy-3-pyridyl)-1-(4-fluoro-2-methoxy-phenyl)sulfonyl-2-oxo-indolin-3-yl]-2-(2-morpholinoethyl)-2,6-diazaspiro[3.3]heptane-6-carboxamide] are “++ (25-75)” and 1 to 10 nM.
On the same counts, the results for `CCOc1ncccc1C1(NC(=O)N2CC3(C2)CN(C2CCN(C(C)C)CC2)C3)C(=O)N(S(=O)(=O)c2ccc(OC)cc2OC)c2ccc(C#N)cc21` (racemic) [Example 22, (±)-N-[5-Cyano-1-(2,4-dimethoxyphenyl)sulfonyl-3-(2-ethoxy-3-pyridyl)-2-oxo-indolin-3-yl]-2-(1-isopropyl-4-piperidyl)-2,6-diazaspiro[3.3]heptane-6-carboxamide] are “+++ (>75)” and 1 to 10 nM.
On the same counts, the results for `CCOc1ncccc1[C@]1(NC(=O)N2CC3(CN(CCN4CCOCC4)C3)C2)C(=O)N(S(=O)(=O)c2ccc(OC)cc2)c2ccc(C#N)cc21.O=C(O)C(F)(F)F` [Example 1B, N-[(3S)-5-cyano-3-(2-ethoxy-3-pyridyl)-1-(4-methoxyphenyl)sulfonyl-2-oxo-indolin-3-yl]-2-(2-morpholinoethyl)-2,6-diazaspiro[3.3]heptane-6-carboxamide; 2,2,2-trifluoroacetic acid] are “+++ (>75)” and below 1 nM.
In the case of `CCOc1ncccc1[C@]1(NC(=O)N2CC3(CN(CCN4CCOCC4)C3)C2)C(=O)N(S(=O)(=O)c2ccc(OC)cc2OC)c2ccc(C#N)cc21` [Example 15, N-[(3S)-5-Cyano-1-(2,4-dimethoxyphenyl)sulfonyl-3-(2-ethoxy-3-pyridyl)-2-oxo-indolin-3-yl]-2-(2-morpholinoethyl)-2,6-diazaspiro[3.3]heptane-6-carboxamide], in assay [1], the “Ki(h-V1a)/Ki(h-V1b)” value is listed as “+++ (>75)”. Also, the Ki in assay [3] is below 1 nM.
On the same counts, the results for `CCOc1ncccc1[C@]1(NC(=O)N2CC3(C2)CN(C2CCN(C(C)C)CC2)C3)C(=O)N(S(=O)(=O)c2ccc(C)cc2)c2ccc(C#N)cc21` [Example 25, N-[(3S)-5-Cyano-3-(2-ethoxy-3-pyridyl)-2-oxo-1-(p-tolylsulfonyl)indolin-3-yl]-2-(1-isopropyl-4-piperidyl)-2,6-diazaspiro[3.3]heptane-6-carboxamide] are “++ (25-75)” and 10 to 100 nM.
For the molecule `CCOc1ncccc1C1(NC(=O)N2CC3(CCNCC3)C2)C(=O)N(S(=O)(=O)c2ccc(OC)cc2OC)c2ccc(C#N)cc21.O=C(O)C(F)(F)F` (centres unmarked) [Example 60, N-(5-Cyano-1-(2,4-dimethoxyphenylsulfonyl)-3-(2-ethoxypyridin-3-yl)-2-oxoindolin-3-yl)-2,7-diazaspiro[3.5]nonane-2-carboxamide 2,2,2-trifluoroacetate], the “Ki(h-V1a)/Ki(h-V1b)” value in assay [1] is “++ (25-75)”. For the same molecule, in assay [3], the inhibitory constant (Ki) lay in the range of 1 to 10 nM.
On the same counts, the results for `CCOc1ncccc1[C@]1(NC(=O)N2CC3(C2)CN(C2CCN(C(C)C)CC2)C3)C(=O)N(S(=O)(=O)c2ccc(C#N)cc2)c2ccc(C#N)cc21` [Example 24, N-[(3S)-5-cyano-1-(4-cyanophenyl)sulfonyl-3-(2-ethoxy-3-pyridyl)-2-oxo-indolin-3-yl]-2-(1-isopropyl-4-piperidyl)-2,6-diazaspiro[3.3]heptane-6-carboxamide] are “+++ (>75)” and 10 to 100 nM.
